Results: PMC5469758, “Identification of an in vivo orally active dual-binding protein-protein interaction inhibitor targeting TNFα through combined in silico/in vitro/in vivo screening” (Scientific Reports, 2017)

Key:
[1] = molecular target: TNFα; conditions: fluorescence binding assay; cited from earlier work
[2] = tested on: TNFα/TNFRI; design: method as in PMID 16284179; conditions: cited from earlier work
[3] = tested on: human TNFα induced apoptosis on the L929 cell line; assay: Neutralization of human TNFα induced apoptosis in L929 cells (MTT); assay type: cell-based; conditions: L929 cells
Description: 80% confluent L929 cells were plated in flat bottom plates at 4 × 10^5 cells per well in 100 μl of DMEM medium containing 10% FBS, 2 mM L-Glutamine, 100 U/ml Penicillin − 100 μg/ml Streptomycin and incubated for one night at 37 °C, 5% CO2. TNFα or TNFβ (150 pg/ml), Actinomycin D (4 μg/ml) and the compounds at different concentrations (ranging from 100 μM to 0.8 μM) were mixed in 150 μl DMEM medium 1% FBS, 2 mM L-Glutamine, 100 U/ml Penicillin−100 μg/ml Streptomycin in U-bottom plates. After two hours incubation at 37 °C, 5% CO2, 100 μl of the mix was added to the plated cells and incubated at 37 °C, 5% CO2 for 24 hours. Supernatants were discarded and 100 μl of MTT at 0.5 mg/ml were added to wells. After two hours, supernatants were discarded and 200 μl of DMSO were then added. Plates were read at 570 nm with a spectrophotometer providing the optical density (OD) of each well. The percentage of neutralization of TNFα by a compound was calculated using equation 3:3 %Neutra=ODcompound−ODTNFα/ODcells−ODTNFα×100
An IC50 could be computed from the percentage of neutralization for each compound.

[4] = design: method as in PMID 25160057; conditions: cited from earlier work
[5] = tested on: TNFα induced NF-κB activation in HEK cells; assay: HEK-Blue TNFα NF-κB secreted embryonic alkaline phosphatase reporter assay; assay type: cell-based, human; conditions: HEK cells
Description: 80% confluent HEK-Blue™ TNFα were plated in flat bottom plates at 5 × 10^4 per well in 100 μl of DMEM containing 2 mM L-Glutamine, 100 U/ml Penicillin − 100 μg/ml Streptomycin and incubated at 37 °C, 5% CO2. Serial dilutions of compounds (ranging from 100 μM to 0.8 μM) were mixed with 400 pg/ml of human TNFα in DMEM containing 2% of FBS, 2 mM L-Glutamine, 100 U/ml Penicillin−100 μg/ml Streptomycin in U-bottom plates. After two hours of incubation at 37 °C, 5% CO2, 100 μl of the mix was added to the plated cells and incubated 24 hours at 37 °C, 5% CO2. 20 μl of supernatants were incubated for 3 hours with 180 μl of QUANTI-Blue™ to reveal secretion of phosphatase alcaline and plates were read at 620 nm with a spectrophotometer providing the optical density (OD).

[6] = tested on: Balb/C mice; assay: LPS/D-Galactosamine induced lethal shock (TNFα-dependent hepatic shock model); assay type: in vivo; conditions: livers eight hours after LPS/D-Galactosamine
Description: 7 weeks-old Balb/C mice were force-fed with 100 μl of a solution of DMSO containing various doses of compound 1 (5 mg down to 0.5 mg) eight hours before receiving an intraperitoneal injection of 200 μl of PBS containing 0.1 μg of LPS and 20 mg of D-Galactosamine. A control group (DMSO) was force-fed with 100 μl of a solution of DMSO alone eight hours before to be injected with 200 μl of LPS/D-Galactosamine solution. Mice survival was monitored for 48 hours after the injection of LPS/D-Galactosamine.
7 weeks-old Balb/C mice were forced-fed with a solution of DMSO containing 5 mg of compound 1 eight hours before receiving an intraperitoneal injection of 200 μl of PBS containing 0.1 μg of LPS and 20 mg of D-Galactosamine. Eight hours after LPS/D-Galactosamine injection, mice were sacrificed by cervical dislocation and livers were harvested, fixed in 4% formalin and embedded in paraffin. […] Slides were scanned with a slide scanner (Perkin Elmer) and analyzed with Pannoramic viewer (3D HISTECH).
7 weeks-old Balb/C mice were forced-fed with a solution of DMSO containing 5 mg of compound 1 eight hours before receiving an intraperitoneal injection of 200 μl of PBS containing 0.1 μg of LPS and 20 mg of D-Galactosamine. Three hours after LPS/D-Galactosamine injection, mice were anesthetized with ketamine/xylazine to recover blood by cardiac puncture. Sera were kept at −80 °C until assay.
TNFα in serum was quantified using U-CyTech biosciences kits (Utrecht, The Netherlands) according to manufacturer’s procedures.
7 weeks-old Balb/C mice were forced-fed with a solution of DMSO containing 5 mg of compound 1 eight hours before receiving an intraperitoneal injection of 200 μl of PBS containing 0.1 μg of LPS and 20 mg of D-Galactosamine. Eight hours after, mice were anesthetized by an injection of ketamine/xylazine to recover blood by cardiac puncture. Sera were kept at −80 °C until assay. Quantification of AST/ALT was performed using Architec ci 8200 analyser (Abbott) with reagent kits from Abbott.

Compound	Kd [1]	IC50 [2]	concentration above which no cells survived (cellular toxicity) [3]	toxicity precluding in vivo use [4]	concentration above which no cells survived (cellular toxicity) [5]	expression of cleaved caspase 3 in liver (immunohistochemistry) [6]	liver damage and hemorrhage (H&E histopathology) [6]
Cc1cc2occ(CN(C)CCN(C)Cc3cn(-c4cccc(C(F)(F)F)c4)c4ccccc34)c(=O)c2cc1C [SPD304]	5.4 ± 0.2 µM	22 µM	more than 30 µM	high toxicity	more than 10 µM		
etanercept						reduced expression of cleaved caspase 3	reduced liver damage and hemorrhage
